# Patent publication US12697330B2, “Therapeutic methods using vadadustat” (Akebia Therapeutics, Inc., priority 2021, dated 2026)
# Tests used:
# erythropoietin (EPO) [1] = assay: Phase 1b study: pharmacodynamics, Baseline-unadjusted serum EPO concentration; type: in vivo, human
# Procedure: PK and EPO Sample. For each vadadustat treatment group, blood samples for vadadustat PK (and its metabolites) and EPO were collected at the following time points: Day 1: predose, and at 1, 2, 3, 4, 5, 8, and 11 hours post dose; Day 2: 24 hours (−2 hours) post Day 1 dose; Day 6: blood sample for EPO analysis only was collected predose on Day 6; Day 8: predose, and at 1, 2, 3, 4, 5, 8, 11 hours post dose, Day 10 or EOT: predose. For the ESA treatment group, blood samples for analysis of EPO were collected at the following time points: Day 1: predose, and at 0.25, 1, 2, 3, 4, 5, 8, and 11 hours post dose; Day 2: 24 hours (−2 hours) post Day 1 dose.
# PD Sampling. For all vadadustat and ESA treatment groups, in addition to EPO, blood samples for Hb, reticulocytes and iron indices for PD analyses were collected on Day 1, Day 6 and Day 10. Hepcidin were collected predose on Day 1, Day 6, and Day 10 for PD analysis.
# Secondary Endpoints. For each treatment group, PD parameters included, but were not limited to, as deemed appropriate: hepcidin, erythropoietin (EPO), iron indices (iron, ferritin, total iron-binding capacity [TIBC], TSAT), Hb, and reticulocytes.
# The summary of serum concentration of Baseline-unadjusted EPO by time for the vadadustat treatment groups in the PK population are presented in FIGS. 1a-11b and FIGS. 12a-12b. The summary of PD parameters for Baseline-unadjusted serum EPO concentration for vadadustat treatment groups by dosing days for the PK population are summarized in Table 2.
# erythropoietin (EPO) [2] = assay: Phase 2 study, Main Study: pharmacodynamics, Baseline-Unadjusted serum EPO concentration; type: in vivo, human
# Procedure: PK/PD Endpoints. An exposure-response analysis of vadadustat and PD measures were conducted as deemed appropriate. The PK parameters included (but were not limited to) the following: area under concentration-time curve from dosing to last measurable concentration (AUClast), area under concentration-time curve from dosing to infinity (AUCinf), Cmax, apparent total body clearance (CL/F), apparent volume of distribution (Vd/F), and terminal half-life (t1/2). The PD parameters included (but were not limited to) the following: EPO, reticulocytes, iron, ferritin, TIBC, and hepcidin.
# PK population: included all randomized subjects who received study drug (vadadustat or epoetin alfa) and had enough drug concentrations to estimate AUC and Cmax. Analysis of this population was based on the dose amount taken at the date of PK sampling for the vadadustat group.
# PD parameters for serum EPO concentration are presented by epoetin alfa stratification for vadadustat treatment groups in Table 7, Table 8a and Table 8b (baseline-unadjusted) and Table 9, Table 10a and Table 10b (baseline-adjusted).
# [3] = Vada 150 mg, Week 11, High Epoetin Alfa Stratum >90 to <300 U/kg/week
# [4] = Vada 150 mg, Week 11, Low Epoetin Alfa Stratum ≤90 U/kg/week
# [5] = Vada 300 mg, Week 1 + 1, High Epoetin Alfa Stratum >90 to <300 U/kg/week
# [6] = Vada 300 mg, Week 1 + 1, Low Epoetin Alfa Stratum ≤90 U/kg/week
# [7] = Vada 300 mg, Week 1, High Epoetin Alfa Stratum >90 to <300 U/kg/week
# [8] = Vada 300 mg, Week 1, Low Epoetin Alfa Stratum ≤90 U/kg/week
# [9] = Vada 300 mg, Week 11, High Epoetin Alfa Stratum >90 to <300 U/kg/week
# [10] = Vada 300 mg, Week 11, Low Epoetin Alfa Stratum ≤90 U/kg/week
# [11] = Vada 300 mg, Week 13, High Epoetin Alfa Stratum >90 to <300 U/kg/week
# [12] = Vada 450 mg, Week 1 + 1, High Epoetin Alfa Stratum >90 to <300 U/kg/week
# [13] = Vada 450 mg, Week 1 + 1, Low Epoetin Alfa Stratum ≤90 U/kg/week
# [14] = Vada 450 mg, Week 1, High Epoetin Alfa Stratum >90 to <300 U/kg/week
smiles,measurement,setting,value
"O=C(O)CNC(=O)c1ncc(-c2cccc(Cl)c2)cc1O [Compound 1, {[5-(3-chlorophenyl)-3-hydroxypyridine-2-carbonyl]amino}acetic acid]","Baseline-Unadjusted serum EPO Tmax, Median","erythropoietin (EPO) [1]; Vada 600 mg QD, Day 1",10.09 h
same,"Baseline-unadjusted serum EPO AUC0-11, Mean (SD)","erythropoietin (EPO) [1]; Vada 600 mg QD, Day 1",319 (150) h · mU/mL
same,"Baseline-Unadjusted serum EPO Tmax, Median","erythropoietin (EPO) [1]; Vada 600 mg QD, Day 8",4.50 h
same,"Baseline-unadjusted serum EPO AUC0-11, Mean (SD)","erythropoietin (EPO) [1]; Vada 600 mg QD, Day 8 (AUClast)",410 (286) h · mU/mL
same,"Baseline-Unadjusted serum EPO Tmax, Median","erythropoietin (EPO) [1]; Vada 750 mg QD, Day 1",10.94 h
same,"Baseline-unadjusted serum EPO AUC0-11, Mean (SD)","erythropoietin (EPO) [1]; Vada 750 mg QD, Day 1",569 (623) h · mU/mL
same,"Baseline-Unadjusted serum EPO Tmax, Median","erythropoietin (EPO) [1]; Vada 750 mg QD, Day 8",5.01 h
same,"Baseline-unadjusted serum EPO AUC0-11, Mean (SD)","erythropoietin (EPO) [1]; Vada 750 mg QD, Day 8 (AUClast)",677 (533) h · mU/mL
same,"Baseline-Unadjusted serum EPO Tmax, Median","erythropoietin (EPO) [1]; Vada 900 mg QD, Day 1",10.00 h
same,"Baseline-unadjusted serum EPO AUC0-11, Mean (SD)","erythropoietin (EPO) [1]; Vada 900 mg QD, Day 1",455 (438) h · mU/mL
same,"Baseline-Unadjusted serum EPO Tmax, Median","erythropoietin (EPO) [1]; Vada 900 mg QD, Day 8",10.00 h
same,"Baseline-unadjusted serum EPO AUC0-11, Mean (SD)","erythropoietin (EPO) [1]; Vada 900 mg QD, Day 8 (AUClast)",981 (1854) h · mU/mL
same,"Baseline-Unadjusted serum EPO AUC0-5, Geometric Mean",erythropoietin (EPO) [2]; [3],143.0 µg·h/mL
same,"Baseline-Unadjusted serum EPO Cmax, Geometric Mean",erythropoietin (EPO) [2]; [3],39.0 µg/mL
same,"Baseline-Unadjusted serum EPO Tmax, Median",erythropoietin (EPO) [2]; [3],1.63 h
same,"Baseline-Unadjusted serum EPO AUC0-5, Geometric Mean",erythropoietin (EPO) [2]; [4],37.6 µg·h/mL
same,"Baseline-Unadjusted serum EPO Cmax, Geometric Mean",erythropoietin (EPO) [2]; [4],10.7 µg/mL
same,"Baseline-Unadjusted serum EPO Tmax, Median",erythropoietin (EPO) [2]; [4],4.78 h
same,"Baseline-Unadjusted serum EPO AUC0-5, Geometric Mean",erythropoietin (EPO) [2]; [5],74.9 µg·h/mL
same,"Baseline-Unadjusted serum EPO Cmax, Geometric Mean",erythropoietin (EPO) [2]; [5],20.5 µg/mL
same,"Baseline-Unadjusted serum EPO Tmax, Median",erythropoietin (EPO) [2]; [5],2.02 h
same,"Baseline-Unadjusted serum EPO AUC0-5, Geometric Mean",erythropoietin (EPO) [2]; [6],65.7 µg·h/mL
same,"Baseline-Unadjusted serum EPO Cmax, Geometric Mean",erythropoietin (EPO) [2]; [6],19.3 µg/mL
same,"Baseline-Unadjusted serum EPO Tmax, Median",erythropoietin (EPO) [2]; [6],2.75 h
same,"Baseline-Unadjusted serum EPO AUC0-5, Geometric Mean",erythropoietin (EPO) [2]; [7],56.0 µg·h/mL
same,"Baseline-Unadjusted serum EPO Cmax, Geometric Mean",erythropoietin (EPO) [2]; [7],17.5 µg/mL
same,"Baseline-Unadjusted serum EPO Tmax, Median",erythropoietin (EPO) [2]; [7],2.00 h
same,"Baseline-Unadjusted serum EPO AUC0-5, Geometric Mean",erythropoietin (EPO) [2]; [8],58.5 µg·h/mL
same,"Baseline-Unadjusted serum EPO Cmax, Geometric Mean",erythropoietin (EPO) [2]; [8],17.6 µg/mL
same,"Baseline-Unadjusted serum EPO Tmax, Median",erythropoietin (EPO) [2]; [8],4.50 h
same,"Baseline-Unadjusted serum EPO AUC0-5, Geometric Mean",erythropoietin (EPO) [2]; [9],84.4 µg·h/mL
same,"Baseline-Unadjusted serum EPO Cmax, Geometric Mean",erythropoietin (EPO) [2]; [9],23.5 µg/mL
same,"Baseline-Unadjusted serum EPO Tmax, Median",erythropoietin (EPO) [2]; [9],0.97 h
same,"Baseline-Unadjusted serum EPO AUC0-5, Geometric Mean",erythropoietin (EPO) [2]; [10],65.2 µg·h/mL
same,"Baseline-Unadjusted serum EPO Cmax, Geometric Mean",erythropoietin (EPO) [2]; [10],20.0 µg/mL
same,"Baseline-Unadjusted serum EPO Tmax, Median",erythropoietin (EPO) [2]; [10],3.29 h
same,"Baseline-Unadjusted serum EPO AUC0-5, Geometric Mean",erythropoietin (EPO) [2]; [11],125 µg·h/mL
same,"Baseline-Unadjusted serum EPO Cmax, Geometric Mean",erythropoietin (EPO) [2]; [11],39.2 µg/mL
same,"Baseline-Unadjusted serum EPO Tmax, Median",erythropoietin (EPO) [2]; [11],0 h
same,"Baseline-Unadjusted serum EPO AUC0-5, Geometric Mean",erythropoietin (EPO) [2]; [12],61.6 µg·h/mL
same,"Baseline-Unadjusted serum EPO Cmax, Geometric Mean",erythropoietin (EPO) [2]; [12],18.1 µg/mL
same,"Baseline-Unadjusted serum EPO Tmax, Median",erythropoietin (EPO) [2]; [12],0 h
same,"Baseline-Unadjusted serum EPO AUC0-5, Geometric Mean",erythropoietin (EPO) [2]; [13],80.2 µg·h/mL
same,"Baseline-Unadjusted serum EPO Cmax, Geometric Mean",erythropoietin (EPO) [2]; [13],23.9 µg/mL
same,"Baseline-Unadjusted serum EPO Tmax, Median",erythropoietin (EPO) [2]; [13],4.51 h
same,"Baseline-Unadjusted serum EPO AUC0-5, Geometric Mean",erythropoietin (EPO) [2]; [14],79.9 µg·h/mL
same,"Baseline-Unadjusted serum EPO Cmax, Geometric Mean",erythropoietin (EPO) [2]; [14],23.4 µg/mL
same,"Baseline-Unadjusted serum EPO Tmax, Median",erythropoietin (EPO) [2]; [14],4.53 h
